Reference: ChEMBL document CHEMBL3885881, “DrugMatrix”

Organism: Rattus norvegicus
Test: DrugMatrix - Regimen: Daily Repeat
Format: toxicity, organism-based, Sprague-Dawley
Design: regimen Daily Repeat, gender Male, age 6-8 weeks
Settings: in vivo, po, 1500 mg/kg, route oral GAVAGE, dose level High, vehicle 100 % WATER; for ABSOLUTE BASOPHIL / ABSOLUTE EOSINOPHIL / ABSOLUTE LYMPHOCYTE / ABSOLUTE MONOCYTE / ABSOLUTE SEGMENTED NEUTROPHIL / BASOPHIL / EOSINOPHIL / ERYTHROCYTE COUNT / HEMATOCRIT / HEMOGLOBIN / LEUKOCYTE COUNT / LYMPHOCYTE / MEAN CORPUSCULAR HEMOGLOBIN / MEAN CORPUSCULAR HEMOGLOBIN CONCENTRATION / MEAN CORPUSCULAR VOLUME / MONOCYTE / NEUTROPHIL / NUCLEATED RED BLOOD CELLS / PLATELET COUNT: tissue Blood; for ALANINE AMINOTRANSFERASE / ALBUMIN / ALKALINE PHOSPHATASE / ASPARTATE AMINOTRANSFERASE / BLOOD UREA NITROGEN / CARBON DIOXIDE / CHLORIDE / CHOLESTEROL / CREATINE PHOSPHOKINASE / CREATININE / GLUCOSE / LACTATE DEHYDROGENASE / LIPASE / PHOSPHORUS / POTASSIUM / SODIUM / TOTAL BILIRUBIN / TOTAL PROTEIN / URIC ACID: tissue Plasma

SMILES: CNCCc1ccccn1 [BETAHISTINE]
- ABSOLUTE BASOPHIL (72 h, time 3 day): 0 CELLS/uL
- ABSOLUTE EOSINOPHIL (72 h, time 3 day): 56.67 CELLS/uL
- ABSOLUTE LYMPHOCYTE (72 h, time 3 day): 8977.33 CELLS/uL
- ABSOLUTE MONOCYTE (72 h, time 3 day): 168 CELLS/uL
- ABSOLUTE SEGMENTED NEUTROPHIL (72 h, time 3 day): 798 CELLS/uL
- BASOPHIL (72 h, time 3 day): 0%
- EOSINOPHIL (72 h, time 3 day): 0.67%
- ERYTHROCYTE COUNT (72 h, time 3 day): 5.37 x10E6/uL
- HEMATOCRIT (72 h, time 3 day): 33.67%
- HEMOGLOBIN (72 h, time 3 day): 12.53 G/DL
- LEUKOCYTE COUNT (72 h, time 3 day): 10 x10E3/uL
- LYMPHOCYTE (72 h, time 3 day): 89.67%
- MEAN CORPUSCULAR HEMOGLOBIN (72 h, time 3 day): 23.37 pg
- MEAN CORPUSCULAR HEMOGLOBIN CONCENTRATION (72 h, time 3 day): 37.27 G/DL
- MEAN CORPUSCULAR VOLUME (72 h, time 3 day): 62.73 fL
- MONOCYTE (72 h, time 3 day): 1.67%
- NEUTROPHIL (72 h, time 3 day): 8%
- NUCLEATED RED BLOOD CELLS (72 h, time 3 day): 0 /100WBC
- PLATELET COUNT (72 h, time 3 day): 1427.33 x10E3/uL
- ALANINE AMINOTRANSFERASE (72 h, time 3 day): 50 u/L
- ALBUMIN (72 h, time 3 day): 4.53 G/DL
- ALKALINE PHOSPHATASE (72 h, time 3 day): 288.67 u/L
- ASPARTATE AMINOTRANSFERASE (72 h, time 3 day): 71.67 u/L
- BLOOD UREA NITROGEN (72 h, time 3 day): 14.33 mg/dL
- CARBON DIOXIDE (72 h, time 3 day): 28.33 mmol/L
- CHLORIDE (72 h, time 3 day): 105.67 MEQ/L
- CHOLESTEROL (72 h, time 3 day): 76.33 mg/dL
- CREATINE PHOSPHOKINASE (72 h, time 3 day): 148.67 u/L
- CREATININE (72 h, time 3 day): 0.19 mg/dL
- GLUCOSE (72 h, time 3 day): 141 mg/dL
- LACTATE DEHYDROGENASE (72 h, time 3 day): 118 u/L
- LIPASE (72 h, time 3 day): 15.67 u/L
- PHOSPHORUS (72 h, time 3 day): 12.33 mg/dL
- POTASSIUM (72 h, time 3 day): 6.21 MEQ/L
- SODIUM (72 h, time 3 day): 150.8 MEQ/L
- TOTAL BILIRUBIN (72 h, time 3 day): 0.2 mg/dL
- TOTAL PROTEIN (72 h, time 3 day): 6.07 G/DL
- URIC ACID (72 h, time 3 day): 0.87 mg/dL
- ABSOLUTE BASOPHIL (120 h, time 5 day): 0 CELLS/uL
- ABSOLUTE EOSINOPHIL (120 h, time 5 day): 0 CELLS/uL
- ABSOLUTE LYMPHOCYTE (120 h, time 5 day): 10659 CELLS/uL
- ABSOLUTE MONOCYTE (120 h, time 5 day): 37.33 CELLS/uL
- ABSOLUTE SEGMENTED NEUTROPHIL (120 h, time 5 day): 870.33 CELLS/uL
- BASOPHIL (120 h, time 5 day): 0%
- EOSINOPHIL (120 h, time 5 day): 0%
- ERYTHROCYTE COUNT (120 h, time 5 day): 5.91 x10E6/uL
- HEMATOCRIT (120 h, time 5 day): 36.13%
- HEMOGLOBIN (120 h, time 5 day): 13.33 G/DL
- LEUKOCYTE COUNT (120 h, time 5 day): 11.57 x10E3/uL
- LYMPHOCYTE (120 h, time 5 day): 92%
- MEAN CORPUSCULAR HEMOGLOBIN (120 h, time 5 day): 22.63 pg
- MEAN CORPUSCULAR HEMOGLOBIN CONCENTRATION (120 h, time 5 day): 36.93 G/DL
- MEAN CORPUSCULAR VOLUME (120 h, time 5 day): 61.27 fL
- MONOCYTE (120 h, time 5 day): 0.33%
- NEUTROPHIL (120 h, time 5 day): 7.67%
- NUCLEATED RED BLOOD CELLS (120 h, time 5 day): 0 /100WBC
- PLATELET COUNT (120 h, time 5 day): 1404.67 x10E3/uL
- ALANINE AMINOTRANSFERASE (120 h, time 5 day): 60.67 u/L
- ALBUMIN (120 h, time 5 day): 4.2 G/DL
- ALKALINE PHOSPHATASE (120 h, time 5 day): 406.33 u/L
- ASPARTATE AMINOTRANSFERASE (120 h, time 5 day): 75.67 u/L
- BLOOD UREA NITROGEN (120 h, time 5 day): 14 mg/dL
- CARBON DIOXIDE (120 h, time 5 day): 25.33 mmol/L
- CHLORIDE (120 h, time 5 day): 105.33 MEQ/L
- CHOLESTEROL (120 h, time 5 day): 59 mg/dL
- CREATINE PHOSPHOKINASE (120 h, time 5 day): 153 u/L
- CREATININE (120 h, time 5 day): 0.19 mg/dL
- GLUCOSE (120 h, time 5 day): 171 mg/dL
- LACTATE DEHYDROGENASE (120 h, time 5 day): 64 u/L
- LIPASE (120 h, time 5 day): 8 u/L
- PHOSPHORUS (120 h, time 5 day): 13.97 mg/dL
- POTASSIUM (120 h, time 5 day): 5.7 MEQ/L
- SODIUM (120 h, time 5 day): 146.6 MEQ/L
- TOTAL BILIRUBIN (120 h, time 5 day): 0.27 mg/dL
- TOTAL PROTEIN (120 h, time 5 day): 5.9 G/DL
- URIC ACID (120 h, time 5 day): 2.07 mg/dL
